Measured values as given in publication PMC10451377, “Rationally Designed Pyrimidine Compounds: Promising Novel Antibiotics for the Treatment of Staphylococcus aureus-Associated Bovine Mastitis” (Antibiotics, 2023).
Converted amounts (≈) assume the structure as drawn.

Experiments:
[1] = tested on: Staphylococcus aureus CMRSA-10; assay: Broth microdilution MIC; format: cell-based; details: CMRSA10, S. aureus CMRSA-10, read-out: Broth Microdilution MIC
Excerpt: (§1) Reference strains for this study (S. aureus ATCC 29213, ATCC 29740 [bovine mastitis strain Newbould], S. epidermidis ATCC 12228, E. coli ATCC 35695, E. faecalis ATCC 29212) were obtained from the American Type Culture Collection (ATCC, Rockville, MD). S. aureus strains CMRSA-10 and CMRSA-2 were obtained from the Laboratoire de santé publique du Québec (LSPQ, Sainte-Anne-de-Bellevue, QC, Canada) and are Canadian CA-MRSA USA-300 and HA-MRSA USA-100 clones, respectively. The strain E. coli imp4213 (lptD), used as a control in MIC assays, is a derivative of E. coli ATCC 35695 (E. coli MC4100) with an increased membrane permeability. […] Other MRSA strains used in this study are clinical isolates of human origin obtained from the microbiology laboratory of the Centre Hospitalier Universitaire de Sherbrooke (CHUS, Sherbrooke, QC, Canada). Bovine mastitis strains (S. aureus, S. chromogenes, S. haemolyticus, S. hominis, S. simulans) were obtained from the Canadian Bovine Mastitis and Milk Quality Research Network (CBRQMN, St-Hyacinthe, QC, Canada). Among these strains, S. aureus 2117 is a high producer of biofilm and was used in the biofilm-eradication assay. S. epidermidis isolates were provided by Centre de Recherche en Infectiologie (CRI) de Québec (Québec, QC, Canada).

[2] = tested on: Staphylococcus aureus CMRSA-2; assay: Broth microdilution MIC; format: cell-based; details: CMRSA2, S. aureus CMRSA-2, read-out: Broth Microdilution MIC
Excerpt: as §1

[3] = tested on: Escherichia coli ΔlptD4213; assay: microbe, parasite or virus in culture; format: cell-based; details: read-out: Broth Microdilution MIC
Excerpt: as §1

[4] = tested on: Bacillus subtilis xpt-lacZ; assay: Broth microdilution MIC; format: cell-based; details: B. subtilis xpt-lacZ, read-out: Broth Microdilution MIC
S. haemolitycus = assay: Susceptibility of isolate panel (MIC50, MIC90, range); format: cell-based, S. haemolyticus
Excerpt: as §1
(§2) The antibacterial activity of the most promising compound, PC206, was also evaluated against larger groups of clinical isolates of human and animal origin. The MIC50 and MIC90 values represented the concentrations of drug required to inhibit the growth of 50% and 90% of the bacterial strains tested, respectively.

S. chromogenes = assay: as above; format: cell-based
Excerpt: as §1, §2

S. epidermidis = assay: as above; format: cell-based; details: S. epidermidis, 10 isolates
Excerpt: as §1, §2

S. hominis = assay: as above; format: cell-based; details: S. hominis, 10 isolates
Excerpt: as §1, §2

S. simulans = assay: as above; format: cell-based
Excerpt: as §1, §2

[5] = tested on: HepG2 and MAC-T cells versus S. aureus Newbould; assay: Selectivity ratios over both assays and both cell lines; format: cell-based; details: over MTT and LDH assays
Method: All CC50 values are reported in Table 3, and plots are provided in the Supplementary Information (Supplementary Figure S2). PC371 had no effect on cell viability even at the highest concentrations tested (CC50 > 600 μM) in both the MTT and the LDH assay and for the two cell lines tested. For the three other compounds, in both cell lines and both assays, a correlation was observed between the effect on cell viability and the length of their aliphatic chain. CC50 of PC372 (5 carbons) was higher than that of PC206 (6 carbons), and both were higher than that of PC383 (10 carbons). Indeed, for the MAC-T cells in the MTT assay, the values were >600 μM (PC372), 317 μM (PC206), and 13.5 μM (PC383). Again, for the MAC-T cell line, the values for the LDH assay were >600 μM (PC372 and PC206) and 23.6 μM (PC383). Similar results were obtained with the HepG2 cells. […] Overall, the MAC-T cells tolerated better exposure to the compounds than the HepG2 cells. To assess the selectivity of the PC2 analogs towards S. aureus, selectivity ratios were calculated. These ratios were obtained by dividing the cytotoxicity CC50 values of an analog by its MIC against S. aureus Newbould. It was not possible to calculate the selectivity ratio for PC371 as its CC50 and MIC values exceeded the maximum values tested.

[6] = tested on: Staphylococcus aureus ATCC 29213; assay: Broth microdilution MIC; details: ATCC29213, read-out: Broth Microdilution MIC
[7] = tested on: Staphylococcus epidermidis ATCC 12228; assay: Broth microdilution MIC; details: ATCC12228, read-out: Broth Microdilution MIC

For `CCCCCCNc1cc(N)nc(N)n1` [PC206], the MIC [1] was 4 µg/mL (≈ 19.1 µM), the MIC [2] was 8 µg/mL (≈ 38.2 µM) and the MIC [3] was over 128 µg/mL. For the same molecule, the MIC [4] was 128 µg/mL (≈ 612 µM), the “MIC Range” value (S. haemolitycus; S. haemolitycus, 10 isolates) was 4 to 128 µg/mL and the MIC90 (S. haemolitycus; Staphylococcus haemolyticus) was 128 µg/mL (≈ 612 µM). The MIC50 (S. haemolitycus; Staphylococcus haemolyticus, S. haemolitycus, 10 isolates, read-out: MIC50) was 64 µg/mL (≈ 306 µM), the MIC90 (S. chromogenes) was 128 µg/mL (≈ 612 µM) and the “MIC Range” value (S. chromogenes; S. chromogenes, 5 isolates) was 16 to 128 µg/mL. The MIC50 (S. chromogenes; S. chromogenes, 5 isolates, read-out: MIC50) was 32 µg/mL (≈ 153 µM), the “MIC Range” value (S. epidermidis) was 2 to 16 µg/mL and the MIC50 (S. epidermidis; Staphylococcus epidermidis, read-out: MIC50) was 4 µg/mL (≈ 19.1 µM). The MIC90 (S. epidermidis; Staphylococcus epidermidis, read-out: MIC90) was 8 µg/mL (≈ 38.2 µM), the “MIC Range” value (S. hominis) was 1 to 32 µg/mL and the MIC50 (S. hominis; Staphylococcus hominis, read-out: MIC50) was 8 µg/mL (≈ 38.2 µM). For the same molecule, the MIC90 (S. hominis; Staphylococcus hominis, read-out: MIC90) was 32 µg/mL (≈ 153 µM), the “MIC Range” value (S. simulans; S. simulans, 5 isolates) was 64 to 128 µg/mL and the MIC90 (S. simulans; Staphylococcus simulans) was 128 µg/mL (≈ 612 µM). For the same molecule, the MIC50 (S. simulans; Staphylococcus simulans, S. simulans, 5 isolates, read-out: MIC50) was 64 µg/mL (≈ 306 µM), the “Selectivity ratio (CC50/MIC against S. aureus Newbould), overall” value [5] was “above 3.9” and the MIC [6] was 8 µg/mL (≈ 38.2 µM). The MIC [7] was 4 µg/mL (≈ 19.1 µM).
